The series in a line: in vitro. The note with it: rat, rat liver microsomes, pH 7.4.

We go through three compounds from patent US20040242566A1, “Dipeptidyl peptidase inhibitors” (Syrrx, Inc., priority 2003, published 2004).

Method: Several compounds were evaluated for stability in rat liver microsomes.
The test compounds (1 p) were incubated at 37° C. in phosphate buffer (50 mM, pH 7.4) containing rat liver microsomes (1 mg/mL protein) and NADPH (Nicotinamide Adenine Dinucleotide Phosphate, reduced form) (4 mM). The incubation mixtures were quenched with trichloroacetic acid (0.3 M) over 0, 5, 15, 30 min time-course. Quenched solutions were centrifuged and supernatants were transferred for LC/MS quantitation. The half life of a test compounds was derived from the compound stability curve over the time course.

A word on the half-life: it is how long it takes for the measured level to halve. A lower half-life goes with fast loss. Consider `COc1cc2nc(N3CCCC(N)C3)n(Cc3ccccc3C#N)c(=O)c2cc1OC` (stereo not drawn) [Example 2, 2-[2-(3-Amino-piperidin-1-yl)-6,7-dimethoxy-4-oxo-4H-quinazolin-3-ylmethyl]-benzonitrile], for which the half-life at 1 p was 107 min.

In turn, `N#Cc1ccccc1Cn1c(N2CCCC(N)C2)nc2ccc(F)cc2c1=O` (stereo not drawn) [Example 6, 2-[2-(3-Amino-piperidin-1-yl)-6-fluoro4-oxo4H-quinazolin-3-ylmethyl]-benzonitrile] had a half-life at 1 p of 31 min.

Take `N#Cc1ccccc1Cn1c(N2CCCC(N)C2)nc2ccccc2c1=O` (stereo not drawn) [Example 1, 2-[2-(3-Amino-piperidin-1-yl)-4-oxo4H-quinazolin-3-ylmethyl]-benzonitrile]: the half-life at 1 p worked out at 2.5 min.
